Experimental data published in article PMC8537327, “EGFR-Targeted Pentacyclic Triterpene Analogues for Glioma Therapy” (International Journal of Molecular Sciences, 2021).

What was measured:
[1] = system: U251 human glioblastoma cells; assay: MTT cytotoxicity assay, U251 cells; format: cell-based; details: for IC50: MTT, 72 h; for anticancer activity against U251 cells: at 100 µM concentration
Protocol: (§1) U251, T98G (Japanese Collection of Research Bioresources Cell Bank), and U87 human glioblastoma cell lines were incubated in Dulbecco’s Modified Eagle Medium (DMEM)/Ham’s F12 (Wako Pure Chemical Industries, Osaka, Japan), Eagle’s Minimum Essential Medium (EMEM; Wako Pure Chemical Industries, Osaka, Japan), and DMEM (Gibco/Thermo Fisher Scientific, Waltham, MA, USA) respectively, and supplemented with 10% fetal bovine serum (FBS; Sigma Aldrich, MO, USA). Jurkat human leukemic T-cell line was cultured in Roswell Park Memorial Institute (RPMI) 1640 (Wako Pure Chemical Industries, Osaka, Japan), supplemented with 10% FBS. PBMCs (Precision Bioservices, Frederick, MD, USA) were incubated in RPMI 1640 and supplemented with 10% human serum AB (HS) (Gemini, Woodland, CA, USA). All media were supplemented with 89 μg/mL streptomycin (Meiji Seika Pharma, Tokyo, Japan) at 37 °C in a humid atmosphere and 5% CO2. For each experiment, growing cells were plated at 4 × 10^4 cells/mL and 6 × 10^5 cells/mL into 24-well and 96-well microtiter tissue culture plates (Iwaki brand Asahi Glass Co., Chiba, Japan) respectively and incubated for 72 h before the addition of the drugs (the optimal cell number for cytotoxicity assays was determined in preliminary experiments). The stock solutions of the compounds and cisplatin (Sigma-Aldrich, St. Louis, MO, USA) in concentrations between 0.1–10 mM were prepared in dimethyl sulfoxide (DMSO; Wako Pure Chemical Industries, Osaka, Japan) and in H2O respectively, then were added to fresh culture medium. The concentration of DMSO and H2O in the final culture medium was 1% which had no effect on the cell viability.
(§2) The MTT (Dojindo Molecular Technologies, Kumamoto, Japan) assay was carried out using the U251, T98G, U87, Jurkat, and PBMC cells to determine the cytotoxicity of compounds 1–13 and cisplatin as previously described in the literature with small modifications. Treated cells were incubated with different concentrations (1–100 µM) of the compounds for 72 h at 37 °C in the CO2 incubator. About 100 µL (1.1 mg/mL) of MTT solution was added to each well and after further incubation for 4 h, formazan crystals formed. At the end of this period, the medium was removed and the formazan crystals were solubilized by the addition of 100 μL DMSO to each well. The absorbance was read on an Infinite M1000 plate reader (Tecan, Mannedorf, Switzerland) at a wavelength of 550 nm with background subtraction at 630 nm. All experiments were performed in triplicate and IC50 values were defined as the drug concentrations that reduced absorbance to 50% of control values.

[2] = system: T98G human glioblastoma cells; assay: MTT cytotoxicity assay, T98G cells; format: cell-based; details: for IC50: MTT, 72 h; for anticancer activity against T98G cells: at 100 µM concentration
Protocol: as §1, §2

[3] = system: U87 human glioblastoma cells; assay: MTT cytotoxicity assay, U87 cells; format: cell-based; details: for IC50: MTT, 72 h; for anticancer activity against U87 cells: at 100 µM concentration
Protocol: as §1, §2

HER2 = molecular target: T1, HER2 (Homo sapiens, UniProt P04626); assay: Kinase profiling assay (ADP-Glo), HER2; format: biochemical; details: 30 µM concentration
T1 construct: purchased Promega Corporation
T1 sequence (P04626 23-1255): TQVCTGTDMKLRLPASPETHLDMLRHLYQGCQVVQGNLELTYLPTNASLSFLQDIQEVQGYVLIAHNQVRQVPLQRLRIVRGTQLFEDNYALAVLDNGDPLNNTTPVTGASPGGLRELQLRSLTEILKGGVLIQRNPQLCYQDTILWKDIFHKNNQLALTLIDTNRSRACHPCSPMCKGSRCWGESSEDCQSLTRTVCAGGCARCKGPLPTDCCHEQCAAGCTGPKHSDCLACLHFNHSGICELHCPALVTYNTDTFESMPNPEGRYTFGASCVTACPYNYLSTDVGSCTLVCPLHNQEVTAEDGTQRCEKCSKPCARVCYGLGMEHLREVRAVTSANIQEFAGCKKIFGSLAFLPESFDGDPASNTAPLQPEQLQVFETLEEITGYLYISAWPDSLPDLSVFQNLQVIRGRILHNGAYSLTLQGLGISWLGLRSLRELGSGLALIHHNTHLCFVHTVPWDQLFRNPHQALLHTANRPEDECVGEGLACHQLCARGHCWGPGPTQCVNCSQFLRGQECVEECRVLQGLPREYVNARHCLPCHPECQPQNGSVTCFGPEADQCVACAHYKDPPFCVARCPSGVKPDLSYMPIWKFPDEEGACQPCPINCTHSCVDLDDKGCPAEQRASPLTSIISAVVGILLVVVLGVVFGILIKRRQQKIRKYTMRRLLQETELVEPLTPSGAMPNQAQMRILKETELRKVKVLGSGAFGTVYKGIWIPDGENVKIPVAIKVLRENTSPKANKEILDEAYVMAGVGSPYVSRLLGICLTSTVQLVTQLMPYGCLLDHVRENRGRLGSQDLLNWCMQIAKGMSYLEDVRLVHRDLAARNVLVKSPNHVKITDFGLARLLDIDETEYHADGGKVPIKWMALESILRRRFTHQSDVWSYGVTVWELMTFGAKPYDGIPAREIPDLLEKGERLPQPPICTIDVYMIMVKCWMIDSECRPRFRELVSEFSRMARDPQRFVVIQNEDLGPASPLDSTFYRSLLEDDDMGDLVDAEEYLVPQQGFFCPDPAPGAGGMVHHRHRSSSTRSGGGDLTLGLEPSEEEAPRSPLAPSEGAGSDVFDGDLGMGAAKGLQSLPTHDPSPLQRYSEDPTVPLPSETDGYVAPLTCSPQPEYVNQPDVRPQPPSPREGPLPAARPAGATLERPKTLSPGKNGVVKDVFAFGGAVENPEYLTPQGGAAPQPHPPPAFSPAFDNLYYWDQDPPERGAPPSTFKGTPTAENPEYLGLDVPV
Protocol: (§3) The kinase profiling assay protocol (TK1 and TK-2) was applied according to the manufacturer‘s instructions (Promega Corporation, Madison, WI, USA) with few modifications. In regard to this protocol, the EGFR, HER2, HER4, IGF1R, InsR, KDR, PDGFR-α, PDGFR-β, ABL1, BRK, BTK, CSK, FYN A, LCK, LYN B, and SRC kinase stocks in the kinase strips were diluted with 95 µL 2.5x kinase buffer and their substrate stock in the substrate strip was diluted with 15 µL of 100 µM ATP solutions. Then, the kinase reactions were performed using 2 µL of the kinase working stocks, 2 µL of the ATP/substrate working stocks, and 1 µL of compound solution (0.1–100 µM) or 5% DMSO solution in the 384-well plate. After 4 h of incubation at room temperature, the activity of kinases was detected using ADP-Glo Kinase Assay (Promega Corporation, Madison, WI, USA) according to the manufacturer‘s protocol. Briefly, 5 µL of ADP-Glo reagent was added into each well of 384-well plate and the mixture was incubated at room temperature for 40 min to stop the kinase reaction and deplete any ATP remaining. Then, 10 µL Kinase Detection Reagent was added and the mixture was incubated for a further 30 min to convert the kinase-produced ADP to ATP, and then to light. […]

ABL1 = molecular target: T2, ABL1 (Homo sapiens, UniProt P00519); assay: Kinase profiling assay (ADP-Glo), ABL1; format: biochemical; details: 30 µM concentration
T2 construct: purchased Promega Corporation
T2 sequence (P00519 whole entry): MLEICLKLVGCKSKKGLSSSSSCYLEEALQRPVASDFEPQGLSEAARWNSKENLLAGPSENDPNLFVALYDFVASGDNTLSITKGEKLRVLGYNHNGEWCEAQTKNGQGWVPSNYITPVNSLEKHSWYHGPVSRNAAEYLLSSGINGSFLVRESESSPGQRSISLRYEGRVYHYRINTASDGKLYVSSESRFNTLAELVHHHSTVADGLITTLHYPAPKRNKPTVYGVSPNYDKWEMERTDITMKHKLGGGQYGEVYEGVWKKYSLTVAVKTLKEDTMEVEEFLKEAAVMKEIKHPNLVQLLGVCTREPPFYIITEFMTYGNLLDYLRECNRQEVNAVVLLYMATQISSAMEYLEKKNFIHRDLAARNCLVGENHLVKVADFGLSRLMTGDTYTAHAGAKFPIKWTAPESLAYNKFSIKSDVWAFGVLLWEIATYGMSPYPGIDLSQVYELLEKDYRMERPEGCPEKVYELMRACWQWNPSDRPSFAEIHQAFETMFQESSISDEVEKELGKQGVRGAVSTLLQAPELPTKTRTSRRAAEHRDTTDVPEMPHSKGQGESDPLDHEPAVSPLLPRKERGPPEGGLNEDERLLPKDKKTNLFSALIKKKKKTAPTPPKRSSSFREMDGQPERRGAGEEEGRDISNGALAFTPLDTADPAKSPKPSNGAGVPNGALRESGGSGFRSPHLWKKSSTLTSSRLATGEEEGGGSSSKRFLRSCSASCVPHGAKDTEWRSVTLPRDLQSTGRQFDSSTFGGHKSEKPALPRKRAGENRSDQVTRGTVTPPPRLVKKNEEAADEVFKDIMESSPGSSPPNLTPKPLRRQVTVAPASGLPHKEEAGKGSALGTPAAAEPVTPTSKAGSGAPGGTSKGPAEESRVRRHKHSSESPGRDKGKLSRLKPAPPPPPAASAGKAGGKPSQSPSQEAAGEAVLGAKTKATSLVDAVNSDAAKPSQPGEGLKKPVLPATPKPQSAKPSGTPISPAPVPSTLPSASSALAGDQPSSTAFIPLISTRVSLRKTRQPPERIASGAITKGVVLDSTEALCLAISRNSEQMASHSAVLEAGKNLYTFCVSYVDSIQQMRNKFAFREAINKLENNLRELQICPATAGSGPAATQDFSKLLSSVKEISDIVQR
Protocol: as §3

FYN A = molecular target: T3, FYN A (Homo sapiens, UniProt P06241); assay: Kinase profiling assay (ADP-Glo), FYN A; format: biochemical; details: 30 µM concentration
T3 construct: purchased Promega Corporation
T3 sequence (P06241 whole entry): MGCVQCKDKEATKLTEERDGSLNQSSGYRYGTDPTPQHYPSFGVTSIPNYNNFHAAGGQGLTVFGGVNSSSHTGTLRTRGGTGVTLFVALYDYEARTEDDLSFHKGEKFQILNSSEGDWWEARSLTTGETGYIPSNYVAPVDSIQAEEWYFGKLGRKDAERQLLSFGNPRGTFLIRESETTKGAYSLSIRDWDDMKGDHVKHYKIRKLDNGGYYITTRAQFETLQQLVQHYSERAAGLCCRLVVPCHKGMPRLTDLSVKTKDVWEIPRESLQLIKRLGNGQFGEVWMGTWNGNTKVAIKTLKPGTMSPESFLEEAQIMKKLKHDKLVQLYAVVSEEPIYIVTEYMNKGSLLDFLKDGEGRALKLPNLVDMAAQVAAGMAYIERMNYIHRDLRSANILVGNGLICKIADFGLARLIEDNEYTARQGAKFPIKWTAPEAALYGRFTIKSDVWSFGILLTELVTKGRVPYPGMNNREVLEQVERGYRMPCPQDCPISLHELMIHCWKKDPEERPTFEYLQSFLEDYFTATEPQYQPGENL
Protocol: as §3

[4] = system: Jurkat human leukemic T-cells; assay: MTT cytotoxicity assay, Jurkat cells; format: cell-based; details: for IC50: MTT, 72 h; for SI (selectivity index): SI = IC50 for PBMCs/IC50 for Jurkat cells
Protocol: as §1, §2

[5] = system: human peripheral blood mononuclear cells (PBMCs); assay: MTT cytotoxicity assay, PBMCs; format: cell-based; details: 72 h
Protocol: as §1, §2

K562 CML cell line = system: K562 CML cell line; design: method as in PMID 31574910; details: previously reported by the authors; read-out: IC50, cytotoxic activity against K562 CML cell line; cited from earlier work
U251 cells = assay: Annexin V/ethidium homodimer III staining, apoptotic/necrotic cell detection; format: cell-based, human; details: 24 h; IC50 concentration (Figure 4 legend), 5 μM (method)
Protocol: U251 cells (4 × 10^4 cells/well) were seeded in each well of a 24-well plate with compound 10 and cisplatin at 5 μM concentration for 24 h. Then, the apoptotic/necrotic/healthy cells detection kit protocol was applied according to the manufacturer’s instructions (PromoKine, Heidelberg, Germany) with few modifications. Briefly, the cells were washed twice with 1 × binding buffer and then treated with FITC-Annexin V (5 μL), ethidium homodimer III (5 μL), and Hoechst 33342 (5 μL) for 20 min at room temperature in a protected-light environment. After washing in 1 × binding buffer, cells were analyzed under an all-in-one fluorescence microscope Biorevo Fluorescence BZ-9000 (Keyence, Osaka, Japan). Healthy cells, apoptotic cells, late apoptotic or necrotic cells, and necrotic cells were counted as previously described.

Structure (SMILES)	IC50 ([1]; Homo sapiens, U-251)	IC50 ([2]; Homo sapiens, T98G)	IC50 ([3]; Homo sapiens, U-87 MG)	other results
CC1(C)CCC2(C(=O)O)CCC3(C)C(=CCC4C5(C)CCC(O)C(C)(CNCc6ccccc6)C5CCC43C)C2C1 (centres unmarked) [Compound 11, 9-((Benzylamino)methyl)-10-hydroxy-2,2,6a,6b,9,12a-hexamethyl-1,2,3,4,4a,5,6,6a,6b,7,8,8a,9,10,11,12,12a,12b,13,14b-icosahydropicene-4a-carboxylic acid]	> 100 µM	> 100 µM	> 100 µM	anticancer activity against U251 cells [1]: no significant anticancer activity; anticancer activity against T98G cells [2]: no significant anticancer activity; anticancer activity against U87 cells [3]: no significant anticancer activity; melting point: 246 to 249 °C
C#Cc1cccc(Nc2ncnc3cc(OCCOC)c(OCCOC)cc23)c1 [erlotinib, reference compound]	–	–	–	HER2 inhibition (HER2): moderate; ABL1 inhibition (ABL1): moderate; FYN A inhibition (FYN A): moderate
C=C(C)[C@@H]1CC[C@]2(C(=O)OCc3ccccc3)CC[C@]3(C)[C@H](CC[C@@H]4[C@@]5(C)CC[C@H](O)C(C)(C)[C@@H]5CC[C@]43C)[C@@H]12 [Compound 2]	24 ± 4.98 µM	> 100 µM	> 100 µM	–
CC(=O)Nc1cccc(NCC2(C)C(O)CCC3(C)C2CCC2(C)C3CC=C3C4CC(C)(C)CCC4(C(=O)O)CCC32C)c1 (centres unmarked) [Compound 13, 9-[((3-Acetamidophenyl)amino)methyl]-10-hydroxy-2,2,6a,6b,9,12a-hexamethyl-1,2,3,4,4a,5,6,6a,6b,7,8,8a,9,10,11,12,12a,12b,13,14b-icosahydropicene-4a-carboxylic acid]	9.95 ± 2.04 µM	20.2 ± 5.47 µM	21.7 ± 6.09 µM	IC50 ([4]; Homo sapiens, Jurkat): 12.1 ± 1.64 µM; SI (selectivity index) [4]: 3.57; IC50 ([5]; Homo sapiens, PBMC): 43.1 ± 8.32 µM; melting point: 265 to 267 °C
CC1(C)CC[C@]2(C(=O)OCc3ccc(C#N)cc3)CC[C@]3(C)C(=CC[C@@H]4[C@@]5(C)CC[C@H](O)[C@@](C)(C=O)[C@@H]5CC[C@]43C)[C@@H]2C1 [Compound 9]	14.1 ± 3.41 µM	56.6 ± 6.08 µM	> 100 µM	IC50 (K562 CML cell line): 3.19 µM
N.N.[Cl][Pt][Cl] [Cisplatin, cisplatin, reference compound]	–	–	–	IC50 [1]: 7.7 ± 2.81 µM; IC50 [2]: 16.9 ± 3.95 µM; IC50 [3]: 20.9 ± 5.16 µM; IC50 [4]: 4.87 ± 2 µM; SI (selectivity index) [4]: 7.12; IC50 [5]: 34.7 ± 7.11 µM; apoptosis in U251 cells (U251 cells): 13.83%
C[C@H]1[C@H](C)CC[C@]2(C(=O)OCc3ccccc3)CC[C@]3(C)C(=CC[C@@H]4[C@@]5(C)C[C@@H](O)[C@H](O)[C@@](C)(CO)[C@@H]5CC[C@]43C)[C@H]12 [Compound 1]	13.2 ± 3.19 µM	20.5 ± 4.34 µM	22.6 ± 6.75 µM	–
C[C@H](NCC1(C)C(O)CCC2(C)C1CCC1(C)C2CC=C2C3CC(C)(C)CCC3(C(=O)O)CCC21C)c1ccccc1 (stereo partly drawn) [Compound 12, 10-Hydroxy-2,2,6a,6b,9,12a-hexamethyl-9-[(((S)-1-phenylethyl)amino)methyl]-1,2,3,4,4a,5,6,6a,6b,7,8,8a,9,10,11,12,12a,12b,13,14b-icosahydropicene-4a-carboxylic acid]	> 100 µM	> 100 µM	> 100 µM	anticancer activity against U251 cells [1]: no significant anticancer activity; anticancer activity against T98G cells [2]: no significant anticancer activity; anticancer activity against U87 cells [3]: no significant anticancer activity; melting point: 240 to 243 °C
CC1(C)[C@@H](O)CC[C@]2(C)[C@H]3C(=O)C=C4[C@@H]5C[C@@](C)(C(=O)OCc6ccccc6)CC[C@]5(C)CC[C@@]4(C)[C@]3(C)CC[C@@H]12 [Compound 3]	> 100 µM	> 100 µM	> 100 µM	anticancer activity against U251 cells [1]: no significant anticancer activity; anticancer activity against T98G cells [2]: no significant anticancer activity; anticancer activity against U87 cells [3]: no significant anticancer activity
C[C@H]1[C@H](C)CC[C@]2(C(=O)OCc3ccccc3)CC[C@]3(C)C(=CC[C@@H]4[C@@]5(C)CC[C@H](O)C(C)(C)[C@@H]5CC[C@]43C)[C@H]12 [Compound 6]	16.7 ± 3.17 µM	64.1 ± 7.36 µM	79.7 ± 10.1 µM	–
CC1(C)CC[C@]2(C(=O)OCc3ccccc3)CC[C@]3(C)C(=CC[C@@H]4[C@@]5(C)CC[C@H](O)[C@@](C)(CO)[C@@H]5CC[C@]43C)[C@@H]2C1 [Compound 4]	8.06 ± 2.04 µM	9.86 ± 2.21 µM	19.5 ± 4.52 µM	IC50 ([4]; Homo sapiens, Jurkat): 9.97 ± 3.24 µM; SI (selectivity index) [4]: 2.20; IC50 ([5]; Homo sapiens, PBMC): 21.9 ± 5.13 µM
CC1(C)CC[C@]2(C(=O)OCc3ccccc3)CC[C@]3(C)C(=CC[C@@H]4[C@@]5(C)CC[C@H](O)[C@@](C)(C=O)[C@@H]5CC[C@]43C)[C@@H]2C1 [Compound 7]	18 ± 2.23 µM	61.1 ± 5.13 µM	60.9 ± 8.87 µM	–
